# From the kinase profiling compilation of Christmann-Franck et al. (2016)
# What was measured:
# Test in all cases: KINOMEscan competition binding
# Conditions in all cases: compound 1.0 µM
# [1] = tested on: EGFR (human), P00533 [T790M]
# ULK2 (human) = ULK2 (human) (UniProt Q8IYT8)
# PIP4K2C (human) = PIP4K2C (human) (UniProt Q8TBX8)
# HIPK3 (human) = HIPK3 (human) (UniProt Q9H422)
# PRKAA2 (human) = PRKAA2 (human) (UniProt P54646)
# ERN1 (human) = ERN1 (human) (UniProt O75460)
# SGK110 (human) = SGK110 (human) (UniProt P0C264)
# PRKCH (human) = PRKCH (human) (UniProt P24723)
# [2] = tested on: KIT (human), P10721 [V559D]
# MAPK6 (human) = MAPK6 (human) (UniProt Q16659)
# CDKL1 (human) = CDKL1 (human) (UniProt Q00532)
# RIPK2 (human) = RIPK2 (human) (UniProt O43353)
# PAK3 (human) = PAK3 (human) (UniProt O75914)
# SYK (human) = SYK (human) (UniProt P43405)
# STK32B (human) = STK32B (human) (UniProt Q9NY57)
# [3] = tested on: MET (human), P08581 [M1250T]
# SIK1 (human) = SIK1 (human) (UniProt P57059)
# LRRK2 (human) = LRRK2 (human) (UniProt Q5S007)
# [4] = tested on: PIK3CA (human), P42336 [M1043I]
# TBK1 (human) = TBK1 (human) (UniProt Q9UHD2)
# PTK6 (human) = PTK6 (human) (UniProt Q13882)
# MAP3K11 (human) = MAP3K11 (human) (UniProt Q16584)
# CDC42BPG (human) = CDC42BPG (human) (UniProt Q6DT37)
# OXSR1 (human) = OXSR1 (human) (UniProt O95747)
# DMPK (human) = DMPK (human) (UniProt Q09013)
# STK32C (human) = STK32C (human) (UniProt Q86UX6)
# CDK13 (human) = CDK13 (human) (UniProt Q14004)
# CDC42BPB (human) = CDC42BPB (human) (UniProt Q9Y5S2)
# CAMKK1 (human) = CAMKK1 (human) (UniProt Q8N5S9)
# FGFR1 (human) = FGFR1 (human) (UniProt P11362)
# CLK1 (human) = CLK1 (human) (UniProt P49759)
# EPHA1 (human) = EPHA1 (human) (UniProt P21709)
# CAMK2G (human) = CAMK2G (human) (UniProt Q13555)
# CSNK1G2 (human) = CSNK1G2 (human) (UniProt P78368)
# GSK3B (human) = GSK3B (human) (UniProt P49841)
# CDC2L2 (human) = CDC2L2 (human) (UniProt Q9UQ88)
# PHKG2 (human) = PHKG2 (human) (UniProt P15735)
# CDK15 (human) = CDK15 (human) (UniProt Q96Q40)
# RPS6KA4 KD1 (human) = RPS6KA4 KD1 (human) (UniProt O75676)
# [5] = tested on: RET (human), P07949 [M918T]
# PRKX (human) = PRKX (human) (UniProt P51817)
# MERTK (human) = MERTK (human) (UniProt Q12866)
# CLK3 (human) = CLK3 (human) (UniProt P49761)
# STK32B (human), sequence (Q9NY57 whole entry, looked up): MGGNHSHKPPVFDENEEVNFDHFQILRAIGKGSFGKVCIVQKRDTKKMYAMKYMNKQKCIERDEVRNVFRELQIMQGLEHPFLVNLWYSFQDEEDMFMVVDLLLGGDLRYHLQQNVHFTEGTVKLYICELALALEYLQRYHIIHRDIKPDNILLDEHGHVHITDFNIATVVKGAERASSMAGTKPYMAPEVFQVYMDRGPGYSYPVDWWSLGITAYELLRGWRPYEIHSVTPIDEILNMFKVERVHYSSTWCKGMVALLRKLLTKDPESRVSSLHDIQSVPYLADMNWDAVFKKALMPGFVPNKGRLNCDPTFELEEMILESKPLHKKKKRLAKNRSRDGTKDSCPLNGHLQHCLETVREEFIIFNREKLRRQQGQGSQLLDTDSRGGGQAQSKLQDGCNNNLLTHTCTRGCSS
# CDC42BPG (human), sequence (Q6DT37 whole entry, looked up): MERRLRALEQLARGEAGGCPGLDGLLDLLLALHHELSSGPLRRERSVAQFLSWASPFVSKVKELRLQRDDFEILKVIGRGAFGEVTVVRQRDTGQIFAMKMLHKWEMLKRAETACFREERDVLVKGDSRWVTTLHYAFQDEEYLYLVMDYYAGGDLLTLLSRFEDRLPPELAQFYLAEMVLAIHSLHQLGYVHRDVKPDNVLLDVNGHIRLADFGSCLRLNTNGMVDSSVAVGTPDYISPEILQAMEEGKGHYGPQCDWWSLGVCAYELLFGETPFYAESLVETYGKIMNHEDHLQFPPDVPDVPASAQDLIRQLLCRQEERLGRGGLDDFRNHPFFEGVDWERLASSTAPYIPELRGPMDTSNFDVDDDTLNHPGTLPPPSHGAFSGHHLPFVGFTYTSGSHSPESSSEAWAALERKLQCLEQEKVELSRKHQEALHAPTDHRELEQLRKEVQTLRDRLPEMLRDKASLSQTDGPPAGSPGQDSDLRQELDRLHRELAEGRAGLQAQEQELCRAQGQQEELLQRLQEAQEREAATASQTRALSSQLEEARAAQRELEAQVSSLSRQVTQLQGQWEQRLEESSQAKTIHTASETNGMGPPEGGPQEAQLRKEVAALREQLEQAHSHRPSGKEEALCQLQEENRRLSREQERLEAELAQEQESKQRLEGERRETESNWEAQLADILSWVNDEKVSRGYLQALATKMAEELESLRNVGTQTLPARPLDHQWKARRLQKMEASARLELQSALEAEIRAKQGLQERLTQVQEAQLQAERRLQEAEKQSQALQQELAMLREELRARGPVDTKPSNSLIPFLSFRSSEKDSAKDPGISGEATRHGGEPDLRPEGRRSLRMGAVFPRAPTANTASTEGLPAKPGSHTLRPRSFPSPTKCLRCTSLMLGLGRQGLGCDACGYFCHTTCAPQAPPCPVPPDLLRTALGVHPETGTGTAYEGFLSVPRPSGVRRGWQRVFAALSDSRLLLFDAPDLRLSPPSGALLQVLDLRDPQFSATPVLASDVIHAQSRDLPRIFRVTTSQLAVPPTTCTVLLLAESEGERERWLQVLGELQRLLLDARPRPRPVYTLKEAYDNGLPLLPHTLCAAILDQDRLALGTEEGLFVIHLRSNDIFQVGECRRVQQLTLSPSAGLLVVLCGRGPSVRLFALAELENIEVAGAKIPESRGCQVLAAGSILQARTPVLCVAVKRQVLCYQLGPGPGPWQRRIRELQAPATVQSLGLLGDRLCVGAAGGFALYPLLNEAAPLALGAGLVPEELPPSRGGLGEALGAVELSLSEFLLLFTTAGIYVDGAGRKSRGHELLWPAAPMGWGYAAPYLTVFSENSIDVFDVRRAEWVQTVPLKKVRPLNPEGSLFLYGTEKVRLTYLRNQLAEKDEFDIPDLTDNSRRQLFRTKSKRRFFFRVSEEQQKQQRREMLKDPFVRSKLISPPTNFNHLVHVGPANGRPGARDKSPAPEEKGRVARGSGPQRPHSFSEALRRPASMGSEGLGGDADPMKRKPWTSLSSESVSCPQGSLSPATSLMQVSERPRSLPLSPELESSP
# LRRK2 (human), sequence (Q5S007 whole entry, looked up): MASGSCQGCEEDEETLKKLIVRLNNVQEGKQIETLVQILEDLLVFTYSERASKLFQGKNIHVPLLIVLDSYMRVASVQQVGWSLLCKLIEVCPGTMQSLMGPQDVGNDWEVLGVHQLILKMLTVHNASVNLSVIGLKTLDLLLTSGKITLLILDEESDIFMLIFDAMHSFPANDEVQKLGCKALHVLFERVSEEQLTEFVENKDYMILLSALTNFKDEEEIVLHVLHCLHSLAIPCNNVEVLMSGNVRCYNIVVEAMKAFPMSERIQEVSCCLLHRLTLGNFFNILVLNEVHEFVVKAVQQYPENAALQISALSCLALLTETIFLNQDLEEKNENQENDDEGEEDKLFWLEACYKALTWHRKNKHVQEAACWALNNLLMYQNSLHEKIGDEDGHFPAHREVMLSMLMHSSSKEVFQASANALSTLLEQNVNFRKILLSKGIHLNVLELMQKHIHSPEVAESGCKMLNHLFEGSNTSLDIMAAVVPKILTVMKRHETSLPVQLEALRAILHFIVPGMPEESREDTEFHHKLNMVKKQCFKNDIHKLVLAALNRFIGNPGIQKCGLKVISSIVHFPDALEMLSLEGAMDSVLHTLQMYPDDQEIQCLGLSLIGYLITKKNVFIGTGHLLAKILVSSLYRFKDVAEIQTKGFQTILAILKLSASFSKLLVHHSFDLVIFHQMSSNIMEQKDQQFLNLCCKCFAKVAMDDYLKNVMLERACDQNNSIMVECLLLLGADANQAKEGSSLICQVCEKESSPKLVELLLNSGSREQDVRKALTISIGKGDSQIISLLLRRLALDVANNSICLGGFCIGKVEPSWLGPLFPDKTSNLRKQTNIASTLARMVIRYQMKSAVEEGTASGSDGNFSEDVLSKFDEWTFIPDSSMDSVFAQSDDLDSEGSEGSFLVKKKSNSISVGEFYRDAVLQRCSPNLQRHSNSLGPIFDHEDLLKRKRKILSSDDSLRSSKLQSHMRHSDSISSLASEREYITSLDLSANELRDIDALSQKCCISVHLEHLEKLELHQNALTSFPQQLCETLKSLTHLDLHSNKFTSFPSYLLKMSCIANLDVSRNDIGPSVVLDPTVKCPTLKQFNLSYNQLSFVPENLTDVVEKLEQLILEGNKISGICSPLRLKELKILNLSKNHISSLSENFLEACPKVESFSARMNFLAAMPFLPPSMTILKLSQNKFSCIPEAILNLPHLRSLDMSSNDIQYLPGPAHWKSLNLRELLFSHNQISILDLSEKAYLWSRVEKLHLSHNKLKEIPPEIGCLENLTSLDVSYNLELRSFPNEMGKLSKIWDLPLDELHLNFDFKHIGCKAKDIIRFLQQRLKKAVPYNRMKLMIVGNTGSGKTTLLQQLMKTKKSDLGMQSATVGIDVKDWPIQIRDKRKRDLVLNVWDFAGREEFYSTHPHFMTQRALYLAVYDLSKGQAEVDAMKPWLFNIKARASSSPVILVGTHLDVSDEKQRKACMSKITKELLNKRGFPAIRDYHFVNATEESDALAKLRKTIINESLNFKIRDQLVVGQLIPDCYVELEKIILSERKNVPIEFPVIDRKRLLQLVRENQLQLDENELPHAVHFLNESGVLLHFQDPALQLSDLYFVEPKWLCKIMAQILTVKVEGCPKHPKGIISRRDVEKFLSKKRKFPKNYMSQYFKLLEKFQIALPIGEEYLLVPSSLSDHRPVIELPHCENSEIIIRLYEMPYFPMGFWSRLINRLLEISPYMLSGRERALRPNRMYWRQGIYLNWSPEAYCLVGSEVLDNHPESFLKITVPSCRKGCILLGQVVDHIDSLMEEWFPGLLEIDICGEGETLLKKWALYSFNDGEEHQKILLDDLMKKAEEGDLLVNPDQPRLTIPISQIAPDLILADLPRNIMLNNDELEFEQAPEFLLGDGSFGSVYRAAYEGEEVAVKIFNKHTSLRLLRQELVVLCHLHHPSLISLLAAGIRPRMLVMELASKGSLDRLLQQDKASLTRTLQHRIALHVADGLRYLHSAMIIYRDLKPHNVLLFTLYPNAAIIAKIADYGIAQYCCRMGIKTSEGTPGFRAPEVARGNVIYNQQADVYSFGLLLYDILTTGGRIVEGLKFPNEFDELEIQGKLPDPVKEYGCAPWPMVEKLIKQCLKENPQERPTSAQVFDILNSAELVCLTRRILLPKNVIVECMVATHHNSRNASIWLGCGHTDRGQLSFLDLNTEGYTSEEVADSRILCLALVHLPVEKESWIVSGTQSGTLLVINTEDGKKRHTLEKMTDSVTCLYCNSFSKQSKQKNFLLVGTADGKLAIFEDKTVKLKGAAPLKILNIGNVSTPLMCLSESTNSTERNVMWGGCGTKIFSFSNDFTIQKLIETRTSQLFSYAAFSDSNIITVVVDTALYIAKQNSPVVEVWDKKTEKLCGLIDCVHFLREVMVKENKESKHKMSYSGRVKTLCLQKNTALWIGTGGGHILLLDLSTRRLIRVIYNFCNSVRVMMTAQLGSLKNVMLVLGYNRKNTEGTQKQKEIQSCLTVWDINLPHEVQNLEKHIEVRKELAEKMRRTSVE
# GSK3B (human), sequence (P49841 whole entry, looked up): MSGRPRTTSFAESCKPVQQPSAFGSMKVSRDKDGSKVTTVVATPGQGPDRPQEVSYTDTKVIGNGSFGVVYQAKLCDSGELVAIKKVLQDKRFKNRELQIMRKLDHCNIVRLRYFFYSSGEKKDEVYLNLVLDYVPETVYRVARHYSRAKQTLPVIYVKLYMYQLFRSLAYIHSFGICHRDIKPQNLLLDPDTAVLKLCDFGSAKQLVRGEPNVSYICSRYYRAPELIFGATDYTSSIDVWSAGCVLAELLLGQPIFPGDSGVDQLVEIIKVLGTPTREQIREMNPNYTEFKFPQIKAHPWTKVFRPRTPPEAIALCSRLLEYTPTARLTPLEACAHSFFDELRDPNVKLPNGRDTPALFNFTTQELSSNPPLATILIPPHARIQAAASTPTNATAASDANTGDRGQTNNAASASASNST
smiles,measurement,setting,value
COCCNCCCn1c(C(=O)CF)c(-c2ccc(C)cc2)c2c(N)ncnc21,"kinase still bound, per cent of control",[1],100%
same,"kinase still bound, per cent of control",ULK2 (human),90%
same,"kinase still bound, per cent of control",PIP4K2C (human),100%
same,"kinase still bound, per cent of control",HIPK3 (human),100%
same,"kinase still bound, per cent of control",PRKAA2 (human),75%
same,"kinase still bound, per cent of control",ERN1 (human),99%
same,"kinase still bound, per cent of control",SGK110 (human),100%
same,"kinase still bound, per cent of control",PRKCH (human),100%
same,"kinase still bound, per cent of control",[2],73%
same,"kinase still bound, per cent of control",MAPK6 (human),100%
same,"kinase still bound, per cent of control",CDKL1 (human),100%
same,"kinase still bound, per cent of control",RIPK2 (human),39%
same,"kinase still bound, per cent of control",PAK3 (human),100%
same,"kinase still bound, per cent of control",SYK (human),96%
same,"kinase still bound, per cent of control",STK32B (human),98%
same,"kinase still bound, per cent of control",[3],95%
same,"kinase still bound, per cent of control",SIK1 (human),98%
same,"kinase still bound, per cent of control",LRRK2 (human),100%
same,"kinase still bound, per cent of control",[4],100%
same,"kinase still bound, per cent of control",TBK1 (human),100%
same,"kinase still bound, per cent of control",PTK6 (human),90%
same,"kinase still bound, per cent of control",MAP3K11 (human),100%
same,"kinase still bound, per cent of control",CDC42BPG (human),84%
same,"kinase still bound, per cent of control",OXSR1 (human),100%
same,"kinase still bound, per cent of control",DMPK (human),84%
same,"kinase still bound, per cent of control",STK32C (human),100%
same,"kinase still bound, per cent of control",CDK13 (human),90%
same,"kinase still bound, per cent of control",CDC42BPB (human),94%
same,"kinase still bound, per cent of control",CAMKK1 (human),100%
same,"kinase still bound, per cent of control",FGFR1 (human),98%
same,"kinase still bound, per cent of control",CLK1 (human),87%
same,"kinase still bound, per cent of control",EPHA1 (human),94%
same,"kinase still bound, per cent of control",CAMK2G (human),100%
same,"kinase still bound, per cent of control",CSNK1G2 (human),100%
same,"kinase still bound, per cent of control",GSK3B (human),100%
same,"kinase still bound, per cent of control",CDC2L2 (human),100%
same,"kinase still bound, per cent of control",PHKG2 (human),100%
same,"kinase still bound, per cent of control",CDK15 (human),100%
same,"kinase still bound, per cent of control",RPS6KA4 KD1 (human),100%
same,"kinase still bound, per cent of control",[5],100%
same,"kinase still bound, per cent of control",PRKX (human),80%
same,"kinase still bound, per cent of control",MERTK (human),99%
same,"kinase still bound, per cent of control",CLK3 (human),79%
